From patent US10710978B2, “STK4 inhibitors for treatment of hematologic malignancies” (Dana-Farber Cancer Institute, Inc., priority 2015, dated 2020)
Read-outs that look alike come from different tables or passages of the source.

Key:
Assay in all cases: KiNativ assay
Type in all cases: binding
Conditions in all cases: H929 live cell
ACK = ACK (Homo sapiens (Human), UniProt Q07912)
Description: (§1) Biochemical IC50s of the compounds of the present disclosure against various kinases were measured in a KiNativ assay. Compounds were screened in duplicate at 10 μM in H929 live cell. IC50 was measured via Mass spectroscopy (MS).

ATR = ATR (Homo sapiens (Human), UniProt Q13535)
Description: as §1

AurA, AurB, AurC = tested on: AurA, AurB, AurC
Description: as §1

CDK2 = CDK2 (Homo sapiens (Human), UniProt P24941)
Description: as §1

CHK1 = CHK1 (Homo sapiens (Human), UniProt O14757)
CHK1, sequence (O14757 whole entry): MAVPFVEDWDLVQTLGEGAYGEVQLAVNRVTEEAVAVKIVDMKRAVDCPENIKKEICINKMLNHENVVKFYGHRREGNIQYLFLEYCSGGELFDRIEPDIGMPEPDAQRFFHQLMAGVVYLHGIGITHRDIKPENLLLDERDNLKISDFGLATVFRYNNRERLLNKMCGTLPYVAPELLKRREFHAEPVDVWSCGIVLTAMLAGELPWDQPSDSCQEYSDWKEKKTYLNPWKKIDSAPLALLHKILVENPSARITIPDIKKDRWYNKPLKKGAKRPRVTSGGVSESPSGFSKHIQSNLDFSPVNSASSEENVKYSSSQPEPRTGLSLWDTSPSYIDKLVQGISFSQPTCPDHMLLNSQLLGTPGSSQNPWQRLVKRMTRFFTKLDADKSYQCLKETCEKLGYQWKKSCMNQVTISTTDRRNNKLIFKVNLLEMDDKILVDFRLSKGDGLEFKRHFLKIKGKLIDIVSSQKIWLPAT
Description: as §1

CK1a = CK1a (Homo sapiens (Human), UniProt P48729)
Description: as §1

CK1g3 = CK1g3 (Homo sapiens (Human), UniProt Q9Y6M4)
Description: as §1

Erk1 = Erk1 (Homo sapiens (Human), UniProt P27361)
Erk1, sequence (P27361 whole entry): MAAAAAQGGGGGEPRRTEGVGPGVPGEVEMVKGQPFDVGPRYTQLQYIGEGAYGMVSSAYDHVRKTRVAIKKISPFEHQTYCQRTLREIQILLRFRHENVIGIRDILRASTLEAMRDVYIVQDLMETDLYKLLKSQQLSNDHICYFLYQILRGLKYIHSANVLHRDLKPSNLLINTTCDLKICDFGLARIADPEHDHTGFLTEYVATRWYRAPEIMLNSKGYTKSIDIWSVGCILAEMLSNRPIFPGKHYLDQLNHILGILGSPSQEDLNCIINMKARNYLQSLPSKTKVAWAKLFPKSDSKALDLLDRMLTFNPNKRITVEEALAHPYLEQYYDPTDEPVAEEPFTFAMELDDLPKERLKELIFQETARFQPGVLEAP
Description: as §1

FYN, SRC, YES = tested on: FYN, SRC, YES
Description: as §1

GCK = GCK (Homo sapiens (Human), UniProt Q12851)
GCK, sequence (Q12851 whole entry): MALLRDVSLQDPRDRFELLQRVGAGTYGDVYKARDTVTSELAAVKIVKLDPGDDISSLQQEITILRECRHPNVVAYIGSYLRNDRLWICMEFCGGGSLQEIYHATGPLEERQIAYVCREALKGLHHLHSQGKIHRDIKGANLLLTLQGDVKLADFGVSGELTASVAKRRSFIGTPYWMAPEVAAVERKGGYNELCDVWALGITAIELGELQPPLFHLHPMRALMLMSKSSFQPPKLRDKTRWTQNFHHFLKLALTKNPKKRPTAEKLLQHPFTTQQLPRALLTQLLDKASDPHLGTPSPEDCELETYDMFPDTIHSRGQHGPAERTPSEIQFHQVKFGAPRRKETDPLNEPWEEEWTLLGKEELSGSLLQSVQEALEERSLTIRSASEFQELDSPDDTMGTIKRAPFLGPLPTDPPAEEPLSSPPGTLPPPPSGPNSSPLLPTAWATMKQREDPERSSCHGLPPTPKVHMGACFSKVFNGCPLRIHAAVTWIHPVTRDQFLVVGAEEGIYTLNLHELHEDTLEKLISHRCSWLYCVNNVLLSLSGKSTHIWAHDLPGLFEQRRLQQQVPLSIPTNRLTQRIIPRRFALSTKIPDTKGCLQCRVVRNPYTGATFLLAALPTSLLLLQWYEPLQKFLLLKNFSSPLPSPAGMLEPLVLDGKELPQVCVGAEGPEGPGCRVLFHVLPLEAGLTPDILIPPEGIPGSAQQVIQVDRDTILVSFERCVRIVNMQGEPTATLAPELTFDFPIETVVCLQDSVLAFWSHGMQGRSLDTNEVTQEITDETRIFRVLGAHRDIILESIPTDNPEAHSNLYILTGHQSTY
Description: as §1

LOK = LOK (Homo sapiens (Human), UniProt O94804)
Description: as §1

MAP2K1 = MAP2K1 (Homo sapiens (Human), UniProt Q02750)
Description: as §1

MAP2K4 = MAP2K4 (Homo sapiens (Human), UniProt P45985)
MAP2K4, sequence (P45985 whole entry): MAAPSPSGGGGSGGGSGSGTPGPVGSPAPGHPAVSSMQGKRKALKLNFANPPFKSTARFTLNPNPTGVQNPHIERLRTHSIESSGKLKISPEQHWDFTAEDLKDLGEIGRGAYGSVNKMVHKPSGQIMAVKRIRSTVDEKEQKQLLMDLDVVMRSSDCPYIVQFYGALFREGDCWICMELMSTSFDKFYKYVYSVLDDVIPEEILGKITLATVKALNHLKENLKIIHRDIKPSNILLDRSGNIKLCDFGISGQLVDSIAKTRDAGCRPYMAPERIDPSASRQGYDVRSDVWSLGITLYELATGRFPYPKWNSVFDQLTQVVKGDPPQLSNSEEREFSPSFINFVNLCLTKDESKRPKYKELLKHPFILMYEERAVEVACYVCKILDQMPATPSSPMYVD
Description: as §1

MAPKAPK2, MAPKAPK3 = tested on: MAPKAPK2, MAPKAPK3
Description: as §1

MASTL = MASTL (Homo sapiens (Human), UniProt Q96GX5)
Description: as §1

MST1, MST2 = tested on: MST1, MST2
Description: as §1

MST4, YSK1 = tested on: MST4, YSK1
Description: as §1

MST4 = tested on: MST4
Description: as §1

NDR2 = NDR2 (Homo sapiens (Human), UniProt Q9Y2H1)
NDR2, sequence (Q9Y2H1 whole entry): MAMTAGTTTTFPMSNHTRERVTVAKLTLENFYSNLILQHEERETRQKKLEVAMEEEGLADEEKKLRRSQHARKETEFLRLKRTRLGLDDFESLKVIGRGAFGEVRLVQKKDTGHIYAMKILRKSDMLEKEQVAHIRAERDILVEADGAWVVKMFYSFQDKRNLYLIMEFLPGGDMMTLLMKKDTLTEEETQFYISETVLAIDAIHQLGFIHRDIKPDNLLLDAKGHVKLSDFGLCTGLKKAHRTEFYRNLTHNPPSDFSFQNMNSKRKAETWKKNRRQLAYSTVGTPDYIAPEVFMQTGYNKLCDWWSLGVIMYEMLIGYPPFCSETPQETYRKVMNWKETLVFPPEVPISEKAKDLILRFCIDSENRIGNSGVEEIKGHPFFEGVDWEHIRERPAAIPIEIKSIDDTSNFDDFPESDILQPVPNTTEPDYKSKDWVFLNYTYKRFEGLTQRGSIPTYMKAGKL
Description: as §1

NEK9 = NEK9 (Homo sapiens (Human), UniProt Q8TD19)
Description: as §1

PAN3 = PAN3 (Homo sapiens (Human), UniProt Q58A45)
Description: as §1

PIP4K2C = PIP4K2C (Homo sapiens (Human), UniProt Q8TBX8)
Description: as §1

PIP5K3 = PIP5K3 (Homo sapiens (Human), UniProt Q9Y2I7)
Description: as §1

PITSLRE = tested on: PITSLRE
Description: as §1

PKN1 = PKN1 (Homo sapiens (Human), UniProt Q16512)
Description: as §1

[1] = tested on: RSK1 domain1, RSK2 domain1, RSK3 domain1
Description: as §1

RSK2 domain1 = RSK2 domain1 (Homo sapiens (Human), UniProt P51812)
Description: as §1

RSK2 domain2 = RSK2 domain2 (Homo sapiens (Human), UniProt P51812)
Description: as §1

RSKL1 = RSKL1 (Homo sapiens (Human), UniProt Q96S38)
RSKL1, sequence (Q96S38 whole entry): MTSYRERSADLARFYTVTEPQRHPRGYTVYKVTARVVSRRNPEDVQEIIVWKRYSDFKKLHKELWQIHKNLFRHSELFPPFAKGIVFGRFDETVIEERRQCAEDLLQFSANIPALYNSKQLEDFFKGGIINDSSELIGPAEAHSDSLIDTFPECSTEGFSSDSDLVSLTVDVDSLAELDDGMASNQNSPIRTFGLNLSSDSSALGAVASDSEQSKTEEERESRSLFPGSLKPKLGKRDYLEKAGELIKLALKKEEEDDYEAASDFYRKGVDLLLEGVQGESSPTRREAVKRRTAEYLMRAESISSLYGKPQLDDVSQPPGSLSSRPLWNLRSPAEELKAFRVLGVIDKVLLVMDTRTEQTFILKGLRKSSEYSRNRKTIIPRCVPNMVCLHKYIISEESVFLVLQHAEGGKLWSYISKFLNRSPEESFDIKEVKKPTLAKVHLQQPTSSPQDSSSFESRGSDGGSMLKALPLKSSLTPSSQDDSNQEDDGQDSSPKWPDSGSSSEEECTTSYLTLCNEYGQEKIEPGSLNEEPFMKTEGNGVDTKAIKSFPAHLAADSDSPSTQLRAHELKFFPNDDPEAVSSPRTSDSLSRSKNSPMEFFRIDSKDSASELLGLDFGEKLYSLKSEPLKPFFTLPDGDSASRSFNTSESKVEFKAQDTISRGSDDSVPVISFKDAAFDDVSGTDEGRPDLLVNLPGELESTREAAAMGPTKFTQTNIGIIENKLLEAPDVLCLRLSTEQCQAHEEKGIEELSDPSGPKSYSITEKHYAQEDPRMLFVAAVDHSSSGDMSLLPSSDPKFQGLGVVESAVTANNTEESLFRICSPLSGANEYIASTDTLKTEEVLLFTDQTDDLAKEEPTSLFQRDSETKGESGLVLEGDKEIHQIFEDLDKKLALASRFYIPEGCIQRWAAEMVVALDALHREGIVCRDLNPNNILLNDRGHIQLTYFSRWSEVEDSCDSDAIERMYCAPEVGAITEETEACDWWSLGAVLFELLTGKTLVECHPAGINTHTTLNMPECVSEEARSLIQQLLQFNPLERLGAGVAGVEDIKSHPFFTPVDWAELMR
Description: as §1

SRPK2 = SRPK2 (Homo sapiens (Human), UniProt P78362)
SRPK2, sequence (P78362 whole entry): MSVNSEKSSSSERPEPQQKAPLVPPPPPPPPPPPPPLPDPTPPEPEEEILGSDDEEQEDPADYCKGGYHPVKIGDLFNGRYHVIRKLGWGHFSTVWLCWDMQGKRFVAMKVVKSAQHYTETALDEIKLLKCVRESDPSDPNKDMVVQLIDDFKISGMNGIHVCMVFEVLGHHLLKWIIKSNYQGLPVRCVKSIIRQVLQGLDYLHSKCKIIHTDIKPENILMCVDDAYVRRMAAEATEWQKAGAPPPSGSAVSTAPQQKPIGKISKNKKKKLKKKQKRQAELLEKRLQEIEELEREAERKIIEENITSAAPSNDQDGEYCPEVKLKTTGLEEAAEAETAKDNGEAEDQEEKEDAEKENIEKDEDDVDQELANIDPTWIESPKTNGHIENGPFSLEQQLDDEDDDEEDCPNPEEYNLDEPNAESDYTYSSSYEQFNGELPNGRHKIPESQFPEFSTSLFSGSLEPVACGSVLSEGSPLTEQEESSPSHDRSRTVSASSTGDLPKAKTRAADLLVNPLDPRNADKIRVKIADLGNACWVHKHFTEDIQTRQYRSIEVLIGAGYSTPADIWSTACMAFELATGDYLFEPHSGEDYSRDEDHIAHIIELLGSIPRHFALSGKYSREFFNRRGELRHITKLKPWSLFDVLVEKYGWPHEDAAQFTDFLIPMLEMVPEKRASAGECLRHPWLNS
Description: as §1

STLK6 = STLK6 (Homo sapiens (Human), UniProt Q9C0K7)
Description: as §1

TAO2 = TAO2 (Homo sapiens (Human), UniProt Q9UL54)
Description: as §1

TBK1 = TBK1 (Homo sapiens (Human), UniProt Q9UHD2)
TBK1, sequence (Q9UHD2 whole entry): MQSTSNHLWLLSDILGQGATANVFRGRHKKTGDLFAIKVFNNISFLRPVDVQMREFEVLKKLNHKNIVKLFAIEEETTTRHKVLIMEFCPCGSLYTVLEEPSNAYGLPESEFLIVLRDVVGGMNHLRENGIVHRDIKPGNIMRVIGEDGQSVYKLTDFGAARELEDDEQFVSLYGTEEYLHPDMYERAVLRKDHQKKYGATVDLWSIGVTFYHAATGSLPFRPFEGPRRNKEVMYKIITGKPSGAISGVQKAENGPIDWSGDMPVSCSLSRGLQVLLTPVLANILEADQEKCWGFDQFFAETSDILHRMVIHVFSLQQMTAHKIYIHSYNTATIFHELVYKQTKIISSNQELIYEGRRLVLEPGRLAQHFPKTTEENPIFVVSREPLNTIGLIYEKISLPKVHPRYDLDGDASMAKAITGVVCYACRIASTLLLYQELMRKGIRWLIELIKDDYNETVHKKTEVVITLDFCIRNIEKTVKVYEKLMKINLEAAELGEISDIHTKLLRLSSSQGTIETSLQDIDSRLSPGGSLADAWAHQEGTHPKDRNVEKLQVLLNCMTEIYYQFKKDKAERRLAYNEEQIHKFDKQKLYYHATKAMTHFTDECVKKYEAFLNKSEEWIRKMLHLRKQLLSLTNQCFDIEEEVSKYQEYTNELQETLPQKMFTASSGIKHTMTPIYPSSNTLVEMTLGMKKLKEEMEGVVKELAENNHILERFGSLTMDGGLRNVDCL
Description: as §1

TLK2 = TLK2 (Homo sapiens (Human), UniProt Q86UE8)
Description: as §1

## Nc1ncc(-c2cccc3ncsc23)cc1-c1ccc2c(c1)CCNC2=O [Compound I-13, 6-(2-amino-5-(benzo[d]thiazol-7-yl)pyridin-3-yl)-3,4-dihydroisoquinolin-1(2H)-one]
ACK; read-out: % inhibition (range)
  inhibition at 10 µM: 0%
ACK; read-out: inhibition (10 μM)
  inhibition at 10 µM: 23.3%
ATR; read-out: % inhibition (range)
  inhibition at 10 µM: 0%
ATR; read-out: inhibition (10 μM)
  inhibition at 10 µM: -16.1%
AurA, AurB, AurC; 10 μM
  % inhibition (range): 0.0%
AurA, AurB, AurC
  inhibition (10 μM): 17.7%
CDK2; read-out: % inhibition (range)
  inhibition at 10 µM: 0%
CDK2; read-out: inhibition (10 μM)
  inhibition at 10 µM: 33.3%
CHK1; read-out: % inhibition (range)
  inhibition at 10 µM: 0%
CHK1; read-out: inhibition (10 μM)
  inhibition at 10 µM: -8.9%
CK1a; read-out: % inhibition (range)
  inhibition at 10 µM: 0%
CK1a; read-out: inhibition (10 μM)
  inhibition at 10 µM: -17.4%
CK1g3; read-out: % inhibition (range)
  inhibition at 10 µM: > 90%
CK1g3; read-out: inhibition (10 μM)
  inhibition at 10 µM: 90.4%
Erk1; read-out: % inhibition (range)
  inhibition at 10 µM: 75 to 90%
Erk1; read-out: inhibition (10 μM)
  inhibition at 10 µM: 75%
FYN, SRC, YES; 10 μM
  % inhibition (range): 0.0%
FYN, SRC, YES
  inhibition (10 μM): 0.3%
GCK; read-out: % inhibition (range)
  inhibition at 10 µM: 75 to 90%
GCK; read-out: inhibition (10 μM)
  inhibition at 10 µM: 77.3%
LOK; read-out: % inhibition (range)
  inhibition at 10 µM: 50 to 75%
LOK; read-out: inhibition (10 μM)
  inhibition at 10 µM: 61.5%
MAP2K1; read-out: % inhibition (range)
  inhibition at 10 µM: 0%
MAP2K1; read-out: inhibition (10 μM)
  inhibition at 10 µM: -27.4%
MAP2K4; read-out: % inhibition (range)
  inhibition at 10 µM: 35 to 50%
MAP2K4; read-out: inhibition (10 μM)
  inhibition at 10 µM: 48.2%
MAPKAPK2, MAPKAPK3; 10 μM
  % inhibition (range): 0.0%
MAPKAPK2, MAPKAPK3
  inhibition (10 μM): 2.5%
MASTL; read-out: % inhibition (range)
  inhibition at 10 µM: 0%
MASTL; read-out: inhibition (10 μM)
  inhibition at 10 µM: -2%
MST1, MST2; 10 μM
  % inhibition (range): 75-90%
MST1, MST2
  inhibition (10 μM): 89.4%
MST4, YSK1; 10 μM
  % inhibition (range): 0.0%
MST4, YSK1
  inhibition (10 μM): −17.0%
MST4; 10 μM
  % inhibition (range): 0.0%
MST4
  inhibition (10 μM): 29.3%
NDR2; read-out: % inhibition (range)
  inhibition at 10 µM: 0%
NDR2; read-out: inhibition (10 μM)
  inhibition at 10 µM: 4%
NEK9; read-out: % inhibition (range)
  inhibition at 10 µM: 0%
NEK9; read-out: inhibition (10 μM)
  inhibition at 10 µM: -10%
PAN3; read-out: % inhibition (range)
  inhibition at 10 µM: 0%
PAN3; read-out: inhibition (10 μM)
  inhibition at 10 µM: -4%
PIP4K2C; read-out: % inhibition (range)
  inhibition at 10 µM: 35 to 50%
PIP4K2C; read-out: inhibition (10 μM)
  inhibition at 10 µM: 42%
PIP5K3; read-out: % inhibition (range)
  inhibition at 10 µM: > 90%
PIP5K3; read-out: inhibition (10 μM)
  inhibition at 10 µM: 92.5%
PITSLRE; 10 μM
  % inhibition (range): 0.0%
PITSLRE
  inhibition (10 μM): −3.6%
PKN1; read-out: % inhibition (range)
  inhibition at 10 µM: 0%
PKN1; read-out: inhibition (10 μM)
  inhibition at 10 µM: 19%
[1]; 10 μM
  % inhibition (range): 0.0%
[1]
  inhibition (10 μM): 13.1%
RSK2 domain1; read-out: % inhibition (range)
  inhibition at 10 µM: 0%
RSK2 domain1; read-out: inhibition (10 μM)
  inhibition at 10 µM: 19.2%
RSK2 domain2; read-out: % inhibition (range)
  inhibition at 10 µM: 0%
RSK2 domain2; read-out: inhibition (10 μM)
  inhibition at 10 µM: 3.8%
RSKL1; read-out: % inhibition (range)
  inhibition at 10 µM: 0%
RSKL1; read-out: inhibition (10 μM)
  inhibition at 10 µM: 1.6%
SRPK2; read-out: % inhibition (range)
  inhibition at 10 µM: 0%
SRPK2; read-out: inhibition (10 μM)
  inhibition at 10 µM: -14%
STLK6; read-out: % inhibition (range)
  inhibition at 10 µM: 0%
STLK6; read-out: inhibition (10 μM)
  inhibition at 10 µM: -10.8%
TAO2; read-out: % inhibition (range)
  inhibition at 10 µM: 0%
TAO2; read-out: inhibition (10 μM)
  inhibition at 10 µM: -19.7%
TBK1; read-out: % inhibition (range)
  inhibition at 10 µM: 0%
TBK1; read-out: inhibition (10 μM)
  inhibition at 10 µM: -23.1%
TLK2; read-out: % inhibition (range)
  inhibition at 10 µM: 0%
TLK2; read-out: inhibition (10 μM)
  inhibition at 10 µM: 12.6%
